Data taken from PMC9892271 (Journal of medicinal chemistry, 2023).
Read-outs that look alike come from different tables or passages of the source.

How the values were obtained:
NTMT1 = target: T1, NTMT1 (Homo sapiens, UniProt Q9BV86)
T1 sequence (Q9BV86 1-222): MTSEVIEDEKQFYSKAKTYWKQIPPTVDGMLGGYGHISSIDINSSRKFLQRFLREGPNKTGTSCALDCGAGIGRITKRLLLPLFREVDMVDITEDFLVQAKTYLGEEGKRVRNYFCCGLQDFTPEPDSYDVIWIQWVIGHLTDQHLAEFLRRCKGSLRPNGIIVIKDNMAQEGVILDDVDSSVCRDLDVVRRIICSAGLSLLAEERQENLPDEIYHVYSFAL

MLL1 complex = MLL1 complex (Homo sapiens, UniProt Q03164); test: SAM-dependent methyltransferase panel; assay type: biochemical; conditions: single dose of 50 μM
PRMT1 = PRMT1 (Homo sapiens, UniProt Q99873); test: SAHH-coupled selectivity assay, PRMT1; assay type: biochemical
G9a = target: T2, G9a (Homo sapiens, UniProt Q96KQ7); test: SAHH-coupled selectivity assay, G9a; assay type: biochemical
T2 sequence (Q96KQ7 1-1210): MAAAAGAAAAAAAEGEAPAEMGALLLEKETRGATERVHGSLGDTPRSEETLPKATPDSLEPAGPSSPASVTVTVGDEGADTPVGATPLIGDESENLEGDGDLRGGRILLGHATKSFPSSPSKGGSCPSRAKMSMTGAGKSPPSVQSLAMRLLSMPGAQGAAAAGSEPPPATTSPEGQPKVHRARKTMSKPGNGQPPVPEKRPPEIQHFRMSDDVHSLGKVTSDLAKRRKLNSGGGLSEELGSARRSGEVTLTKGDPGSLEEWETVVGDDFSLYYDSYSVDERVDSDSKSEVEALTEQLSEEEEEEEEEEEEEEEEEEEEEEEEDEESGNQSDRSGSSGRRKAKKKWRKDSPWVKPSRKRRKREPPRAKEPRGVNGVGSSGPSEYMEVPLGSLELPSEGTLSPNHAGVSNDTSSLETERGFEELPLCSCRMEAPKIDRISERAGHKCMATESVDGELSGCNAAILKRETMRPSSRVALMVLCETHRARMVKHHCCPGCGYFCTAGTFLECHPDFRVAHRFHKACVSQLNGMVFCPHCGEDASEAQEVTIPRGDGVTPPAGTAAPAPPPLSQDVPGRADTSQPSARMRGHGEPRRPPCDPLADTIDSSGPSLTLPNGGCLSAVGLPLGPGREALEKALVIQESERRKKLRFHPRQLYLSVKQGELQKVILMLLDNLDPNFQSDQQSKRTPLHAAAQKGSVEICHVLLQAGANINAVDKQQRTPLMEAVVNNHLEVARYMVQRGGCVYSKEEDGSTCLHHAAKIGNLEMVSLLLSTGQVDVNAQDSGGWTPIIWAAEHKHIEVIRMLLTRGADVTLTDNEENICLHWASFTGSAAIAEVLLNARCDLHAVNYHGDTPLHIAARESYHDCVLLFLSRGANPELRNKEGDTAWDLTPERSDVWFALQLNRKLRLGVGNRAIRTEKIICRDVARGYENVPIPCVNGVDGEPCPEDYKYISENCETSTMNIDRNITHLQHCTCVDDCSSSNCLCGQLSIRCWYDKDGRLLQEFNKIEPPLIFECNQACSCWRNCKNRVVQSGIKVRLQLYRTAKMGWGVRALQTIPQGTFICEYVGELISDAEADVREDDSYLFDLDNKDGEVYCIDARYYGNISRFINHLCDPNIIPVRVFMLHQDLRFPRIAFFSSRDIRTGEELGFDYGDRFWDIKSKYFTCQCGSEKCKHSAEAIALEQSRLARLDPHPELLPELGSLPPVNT

SETD7 = target: T3, SETD7 (Homo sapiens, UniProt Q8WTS6); test: SAHH-coupled selectivity assay, SETD7; assay type: biochemical
T3 sequence (Q8WTS6 1-366): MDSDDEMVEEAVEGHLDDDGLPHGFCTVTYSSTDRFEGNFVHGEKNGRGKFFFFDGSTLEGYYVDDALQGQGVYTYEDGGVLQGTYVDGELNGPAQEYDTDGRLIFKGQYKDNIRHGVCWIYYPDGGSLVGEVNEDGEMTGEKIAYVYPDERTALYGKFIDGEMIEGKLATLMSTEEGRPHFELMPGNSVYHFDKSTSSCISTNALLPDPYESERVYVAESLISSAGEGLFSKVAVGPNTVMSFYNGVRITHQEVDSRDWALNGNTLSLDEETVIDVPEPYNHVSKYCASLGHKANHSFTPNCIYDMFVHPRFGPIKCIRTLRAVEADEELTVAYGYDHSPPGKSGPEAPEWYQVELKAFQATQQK

TbPRMT7 = TbPRMT7 (Trypanosoma brucei brucei, UniProt Q582G4); test: SAHH-coupled selectivity assay, PRMT7; assay type: biochemical
NNMT = target: T4, NNMT (Homo sapiens, UniProt P40261); test: SAHH-coupled selectivity assay, NNMT; assay type: biochemical
T4 sequence (P40261 1-264): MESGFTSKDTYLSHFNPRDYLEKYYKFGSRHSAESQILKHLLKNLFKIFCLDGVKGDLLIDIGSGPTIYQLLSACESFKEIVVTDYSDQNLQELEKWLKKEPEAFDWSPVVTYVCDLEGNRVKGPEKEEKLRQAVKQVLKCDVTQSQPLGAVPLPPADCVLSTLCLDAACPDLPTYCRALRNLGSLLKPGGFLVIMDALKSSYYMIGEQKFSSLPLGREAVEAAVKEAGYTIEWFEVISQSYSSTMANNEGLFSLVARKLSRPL

NTMT2 = NTMT2 (Homo sapiens, UniProt Q5VVY1); test: SAM-dependent methyltransferase panel; assay type: biochemical; conditions: single dose of 50 μM
SAHH = SAHH (Homo sapiens, UniProt P23526); test: selectivity assay, coupling enzyme SAHH; assay type: biochemical
[1] = system: me3-RCC1 and me3-SET in HEK293 cells; test: cellular N-methylation level study; assay type: cell-based
GCS = target: T5, GCS (Homo sapiens, UniProt Q16739); assay type: cell-based; conditions: 30 nM, HCT116 cells
T5 sequence (Q16739 1-394): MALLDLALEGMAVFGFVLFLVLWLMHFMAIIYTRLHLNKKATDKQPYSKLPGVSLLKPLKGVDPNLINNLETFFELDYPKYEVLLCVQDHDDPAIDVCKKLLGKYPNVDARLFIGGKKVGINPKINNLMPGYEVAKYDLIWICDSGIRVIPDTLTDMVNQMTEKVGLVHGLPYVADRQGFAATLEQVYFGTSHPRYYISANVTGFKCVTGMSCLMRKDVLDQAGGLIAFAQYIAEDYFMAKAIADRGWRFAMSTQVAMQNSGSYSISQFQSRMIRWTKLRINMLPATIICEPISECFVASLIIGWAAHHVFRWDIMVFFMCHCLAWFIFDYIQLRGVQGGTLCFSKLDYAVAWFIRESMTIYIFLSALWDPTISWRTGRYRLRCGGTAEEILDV

[2] = system: me3-RCC1 and me3-SET in HEK293 cells; conditions: cited from earlier work

Sequence of TbPRMT7 (Q582G4 whole entry): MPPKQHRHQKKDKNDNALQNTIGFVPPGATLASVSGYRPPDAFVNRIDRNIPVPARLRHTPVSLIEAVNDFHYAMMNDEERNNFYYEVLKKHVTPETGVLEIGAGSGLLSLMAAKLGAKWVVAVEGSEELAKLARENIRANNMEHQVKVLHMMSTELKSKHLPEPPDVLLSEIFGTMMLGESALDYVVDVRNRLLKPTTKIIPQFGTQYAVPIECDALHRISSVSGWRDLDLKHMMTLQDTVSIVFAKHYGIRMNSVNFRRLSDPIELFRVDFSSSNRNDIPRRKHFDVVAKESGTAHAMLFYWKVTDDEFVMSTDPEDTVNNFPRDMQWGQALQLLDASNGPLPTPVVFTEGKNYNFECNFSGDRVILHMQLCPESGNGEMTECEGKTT
Sequence of SAHH (P23526 whole entry, species assumed): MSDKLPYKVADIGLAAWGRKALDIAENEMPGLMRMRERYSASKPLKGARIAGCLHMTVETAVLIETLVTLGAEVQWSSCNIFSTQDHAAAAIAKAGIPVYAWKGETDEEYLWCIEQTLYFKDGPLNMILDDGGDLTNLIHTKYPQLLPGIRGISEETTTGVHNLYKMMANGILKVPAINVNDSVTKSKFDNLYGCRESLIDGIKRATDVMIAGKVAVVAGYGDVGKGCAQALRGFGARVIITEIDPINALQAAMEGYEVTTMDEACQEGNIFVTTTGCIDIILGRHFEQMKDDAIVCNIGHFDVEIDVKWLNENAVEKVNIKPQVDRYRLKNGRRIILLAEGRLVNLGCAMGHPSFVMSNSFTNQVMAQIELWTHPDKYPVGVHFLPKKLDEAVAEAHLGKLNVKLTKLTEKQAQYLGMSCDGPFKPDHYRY
Sequence of PRMT1 (Q99873 whole entry, species assumed): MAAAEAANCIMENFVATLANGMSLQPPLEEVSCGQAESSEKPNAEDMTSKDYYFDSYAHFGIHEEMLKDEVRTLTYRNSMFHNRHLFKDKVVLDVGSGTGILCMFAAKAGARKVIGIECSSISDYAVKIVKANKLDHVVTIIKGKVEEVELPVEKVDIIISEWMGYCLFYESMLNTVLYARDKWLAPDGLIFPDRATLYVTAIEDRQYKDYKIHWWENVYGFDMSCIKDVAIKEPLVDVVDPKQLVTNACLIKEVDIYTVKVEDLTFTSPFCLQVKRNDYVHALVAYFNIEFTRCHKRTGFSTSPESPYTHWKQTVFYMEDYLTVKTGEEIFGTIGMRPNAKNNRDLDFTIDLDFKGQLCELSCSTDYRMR
Sequence of NTMT2 (Q5VVY1 whole entry): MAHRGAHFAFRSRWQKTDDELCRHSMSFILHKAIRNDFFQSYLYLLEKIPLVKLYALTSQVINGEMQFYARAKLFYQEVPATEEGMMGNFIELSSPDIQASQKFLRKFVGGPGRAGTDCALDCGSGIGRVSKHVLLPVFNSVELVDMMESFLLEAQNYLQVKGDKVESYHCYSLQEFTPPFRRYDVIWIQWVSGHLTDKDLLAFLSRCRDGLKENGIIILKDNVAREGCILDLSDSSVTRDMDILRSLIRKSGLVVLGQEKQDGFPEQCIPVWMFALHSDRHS
Sequence of MLL1 complex (Q9C005 whole entry): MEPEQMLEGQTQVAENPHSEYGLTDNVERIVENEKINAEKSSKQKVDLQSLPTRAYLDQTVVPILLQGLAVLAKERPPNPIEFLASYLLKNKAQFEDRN
Sequence of MLL1 complex (Q03164 3745-3969): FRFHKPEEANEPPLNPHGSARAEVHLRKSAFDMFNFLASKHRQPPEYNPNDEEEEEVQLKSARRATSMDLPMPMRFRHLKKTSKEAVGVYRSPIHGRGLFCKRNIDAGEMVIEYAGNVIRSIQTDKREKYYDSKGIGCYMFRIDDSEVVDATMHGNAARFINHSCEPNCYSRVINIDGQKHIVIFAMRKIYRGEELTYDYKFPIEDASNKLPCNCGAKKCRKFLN
Sequence of MLL1 complex (Q15291 whole entry, further chain): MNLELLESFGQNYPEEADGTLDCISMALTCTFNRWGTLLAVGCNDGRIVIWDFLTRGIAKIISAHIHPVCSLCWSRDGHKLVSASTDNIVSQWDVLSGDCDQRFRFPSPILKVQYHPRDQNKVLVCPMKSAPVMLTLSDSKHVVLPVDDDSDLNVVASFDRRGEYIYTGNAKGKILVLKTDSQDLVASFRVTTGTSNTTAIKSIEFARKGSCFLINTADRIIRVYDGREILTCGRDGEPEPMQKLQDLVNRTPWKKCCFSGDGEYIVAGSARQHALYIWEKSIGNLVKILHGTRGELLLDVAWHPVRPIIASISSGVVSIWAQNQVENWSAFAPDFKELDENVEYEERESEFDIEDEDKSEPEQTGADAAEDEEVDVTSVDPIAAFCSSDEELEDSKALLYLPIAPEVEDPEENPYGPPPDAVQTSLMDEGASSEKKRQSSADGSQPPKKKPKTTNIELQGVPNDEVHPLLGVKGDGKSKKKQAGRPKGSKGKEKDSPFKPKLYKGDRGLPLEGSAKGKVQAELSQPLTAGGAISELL
Sequence of MLL1 complex (Q9UBL3 96-628, further chain): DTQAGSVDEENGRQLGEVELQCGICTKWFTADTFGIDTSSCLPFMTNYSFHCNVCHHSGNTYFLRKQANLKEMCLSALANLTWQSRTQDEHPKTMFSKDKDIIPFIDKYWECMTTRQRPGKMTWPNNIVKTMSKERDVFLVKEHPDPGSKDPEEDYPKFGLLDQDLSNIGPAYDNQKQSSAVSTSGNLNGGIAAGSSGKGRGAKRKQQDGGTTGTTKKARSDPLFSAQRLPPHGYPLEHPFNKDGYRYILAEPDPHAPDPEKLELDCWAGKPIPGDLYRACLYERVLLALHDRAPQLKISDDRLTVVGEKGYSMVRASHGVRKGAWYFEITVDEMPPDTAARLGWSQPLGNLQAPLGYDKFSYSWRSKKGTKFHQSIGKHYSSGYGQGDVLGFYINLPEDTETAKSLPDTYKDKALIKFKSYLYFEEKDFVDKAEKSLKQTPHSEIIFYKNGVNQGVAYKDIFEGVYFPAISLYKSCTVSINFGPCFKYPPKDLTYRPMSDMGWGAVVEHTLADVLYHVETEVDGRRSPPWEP

For CN1CCC[C@H](OC(=O)NC(C)(C)c2csc(-c3ccc(F)cc3)n2)C1 [Compound 5, (S)-1-methylpiperidin-3-yl (2-(2-(4-Fluorophenyl)thiazol-4-yl)propan-2-yl)carbamate], the “fold loss of potency compared to venglustat” value (from here on “fold loss of potency”) (NTMT1; NTMT1 IC50) was “over 40 fold”.

With CCCN1CCC[C@H](OC(=O)NC(C)(C)c2csc(-c3ccc(F)cc3)n2)C1 [Compound 6, (S)-1-propylpiperidin-3-yl (2-(2-(4-Fluorophenyl)thiazol-4-yl)propan-2-yl)carbamate] the “fold loss of potency” value (NTMT1; NTMT1 IC50) was “over 40 fold”.

For CC(C)(NC(=O)OCCN1CCCCC1)c1csc(-c2ccc(F)cc2)n1 [Compound 7, 2-(Piperidin-1-yl)ethyl (2-(2-(4-Fluorophenyl)thiazol-4-yl)propan-2-yl)carbamate], the “fold reduction compared to 6” value (NTMT1; NTMT1 IC50) was over 5 fold.

With CC(C)(NC(=O)Oc1cccnc1)c1csc(-c2ccc(F)cc2)n1 [Compound 8, Pyridin-3-yl (2-(2-(4-Fluorophenyl)thiazol-4-yl)propan-2-yl)carbamate] the “NTMT1 inhibition (in words)” value (NTMT1) was “null activity”.

For CC(C)(NC(=O)N[C@@H]1CN2CCC1CC2)c1csc(-c2ccc(F)cc2)n1 [Compound 9, 1-(2-(2-(4-Fluorophenyl)thiazol-4-yl)propan-2-yl)-3-(quinuclidin-3-yl)urea], the “fold loss of potency” value (NTMT1; NTMT1 IC50) was over 100 fold.

In the case of CC(C)(C(=O)N[C@@H]1CN2CCC1CC2)c1csc(-c2ccc(F)cc2)n1 [Compound 10, 2-(2-(4-Fluorophenyl)thiazol-4-yl)-2-methyl-N-(quinuclidin-3-yl)propenamide], the “NTMT1 inhibition (in words)” value (NTMT1) is reported as “did not show any inhibition”.

With CC(C)(NC(=O)O[C@@H]1CN2CCC1CC2)c1csc(-c2ccc(F)c(O)c2)n1 [GD433] the inhibition (MLL1 complex) was ~ 25%, the inhibition (PRMT1; 10 μM) was “no significant inhibition” and the inhibition (PRMT1; 30 μM) was “no significant inhibition”. The inhibition (PRMT1; 100 μM) was 50%, the inhibition (G9a; 10 μM) was “no significant inhibition” and the inhibition (G9a; 30 μM) was “no significant inhibition”. The inhibition (G9a; 100 μM) was “did not exhibit inhibition”, the inhibition (SETD7; 10 μM) was “no significant inhibition” and the inhibition (SETD7; 30 μM) was “no significant inhibition”. The inhibition (SETD7; 100 μM) was “did not exhibit inhibition”, the inhibition (TbPRMT7; 10 μM) was “no significant inhibition” and the inhibition (TbPRMT7; 30 μM) was “no significant inhibition”. The inhibition (TbPRMT7; 100 μM) was “did not exhibit inhibition”, the inhibition (NNMT; 10 μM) was “no significant inhibition” and the inhibition (NNMT; 30 μM) was “no significant inhibition”. The inhibition (NNMT; 100 μM) was “did not exhibit inhibition”, the inhibition (NTMT2) was “potently inhibited” and the inhibition (SAHH; 10 μM) was “no significant inhibition”. The inhibition (SAHH; 30 μM) was “no significant inhibition” and the inhibition (SAHH; 100 μM) was “did not exhibit inhibition”.

With CC(C)(NC(=O)O[C@@H]1CN2CCC1CC2)c1csc(-c2cncnc2)n1 [YD2160] the “change in me3-RCC1 or me3-SET” value ([1]; up to 30 μM) was “did not induce any change”.

In the case of CC(C)(NC(=O)O[C@@H]1CN2CCC1CC2)c1csc(-c2ccc(Cl)c(O)c2)n1 [YD2200], the “effect on me3-RCC1 and me3-SET” value ([1]; 1 μM) is reported as “significantly reduces” and the IC50 ([1]; read-out: approximate IC50, me3-RCC1 and me3-SET) is reported as about 300 nM.

In the case of CC(C)(NC(=O)O[C@@H]1CN2CCC1CC2)c1csc(-c2ccc(F)cc2)n1 [venglustat, (S)-quinuclidin-3-yl (2-(2-(4-Fluorophenyl)thiazol-4-yl)propan-2-yl)carbamate], the “inhibition of cellular GCS activity” value (GCS) is listed as “significantly inhibits”, the IC50 ([2]; cellular inhibition assay) is listed as 500 nM and the IC50 ([2]; read-out: approximate IC50, me3-RCC1 and me3-SET, HEK293 cells) is listed as about 300 nM.
